Measurements: patent publication EP0452101B1, “Spiro bridged and unbridged heterocyclic compounds” (ISRAEL INSTITUTE FOR BIOLOGICAL RESEARCH, priority 1990, dated 1991)

What was measured:
Type in all cases: in vivo
[1] = tested on: Male white mice of the CD-1 strain; assay: Pharmacodynamic profile and general toxicity, Part B (signs, mortality, LD50); parameters: key to Altered spontaneous motor activity (Mot): increased (inc); decreased (dec); key to Piloerection (Pil) / Hypothermia (Hyp) / Salivation (Sal) / Lacrimation (Lac) / Diarrhea (Dia) / Mydriasis (Myd): sli = slight; mod = moderate; sev = severe; conditions: for Analgesia (Ana) / Convulsive seizure (Con) / Respiratory distress (Res) / Tremors (Tre): animals affected/treated
Description: Male white mice of the CD-1 strain (Charles River, UK), within the body weight range of 18-26 g, were used throughout this study, carried out on AF123, AF125 and AF125(N).
Furthermore, these initial trials clearly established that the major signs of reactions to treatment consisted primarily of signs characteristic for potential cholinomimetic activity of the test material, such as tremors, salivation, lacrimation, diarrhea, analgesia, hypothermia and vasodilation. […]

AF64A-treated rats [2] = assay: 8-arm radial maze (RAM) with delay procedure in AF64A-treated rats, Part B
Protocol: This animal model mimics the cholinergic hypofunction and cognitive dysfunction in SDAT (Fisher and Hanin, loc cit; Fisher et al, Neurosci. Lett. 102: 325-331, 1989); the method described in the latter publication was used here.
In brief, saline- and A64A-pretreated rats (3 nmole/2 µl./side, icv) were used in these experiments, 2.5 months after the lesion. The experiment was carried out over a three-week period. During the first week the rats were trained to find food pellets in all eight arms of the maze. After learning the task, the rats were trained using the delay procedure. During a predelay session, four of the arms of the maze were closed and the rats collected the food pellets from the remaining four opened arms. During this period working memory errors were recorded. Following a two hour delay, the rats were returned to the maze. All of the arms of the maze were now open but only four of them, those which were closed during the pre-delay session, were baited. The rats had to collect the food pellets without entering any previously visited arms, whether during the predelay or the post-delay session. After reaching a baseline level the rats were tested for their performance during the third week of the experiment in which either 10mM phosphate buffer (pH 7.3), or AF150 (0.07 or 1.0 mg./kg. free base dissolved in 10 mM phosphate buffer, pH 7.3), were administered i.p., immediately after the pre-delay session, once a day for five days.

AF64A-treated rats [3] = assay: Morris water maze (MWM) in AF64A-treated rats; conditions: i.p.
Protocol: This animal model, which mimics the cholinergic hypofunction and cognitive impairments in SDAT was used as described in Fisher et al (J. Pharmacol. Exptl. Therap, 1991, in the press).
Rats were injected with AF64A (3 nmole/2 µl./side, icv) or saline (2 µl., icv), in presence of phosphate buffer or AF151.

CC1=NCC2(CN3CCC2CC3)O1 (racemic) [AF125, 2-Methyl-spiro(1,3 oxazoline-5,3')quinuclidine]
Altered spontaneous motor activity (Mot) ([1]; 5 mg/kg i.v.): dec
Lacrimation (Lac) ([1]; 5 mg/kg i.v.): sli
Mydriasis (Myd) ([1]; 5 mg/kg i.v.): sli
Salivation (Sal) ([1]; 5 mg/kg i.v.): sli
Analgesia (Ana) ([1]; 5 mg/kg i.v.): 5/5
Convulsive seizure (Con) ([1]; 5 mg/kg i.v.): 0/5
Respiratory distress (Res) ([1]; 5 mg/kg i.v.): 0/5
Tremors (Tre) ([1]; 5 mg/kg i.v.): 0/5
Altered spontaneous motor activity (Mot) ([1]; 10 mg/kg i.v.): dec
Diarrhea (Dia) ([1]; 10 mg/kg i.v.): sli
Hypothermia (Hyp) ([1]; 10 mg/kg i.v.): sli
Lacrimation (Lac) ([1]; 10 mg/kg i.v.): sli
Mydriasis (Myd) ([1]; 10 mg/kg i.v.): sli
Piloerection (Pil) ([1]; 10 mg/kg i.v.): sli
Salivation (Sal) ([1]; 10 mg/kg i.v.): mod
Analgesia (Ana) ([1]; 10 mg/kg i.v.): 5/5
Convulsive seizure (Con) ([1]; 10 mg/kg i.v.): 0/5
Respiratory distress (Res) ([1]; 10 mg/kg i.v.): 0/5
Tremors (Tre) ([1]; 10 mg/kg i.v.): 0/5
Convulsive seizure (Con) ([1]; 10 mg/kg p.os): 0/5
Respiratory distress (Res) ([1]; 10 mg/kg p.os): 0/5
Tremors (Tre) ([1]; 10 mg/kg p.os): 0/5
Altered spontaneous motor activity (Mot) ([1]; 20 mg/kg i.v., Table 9): dec
Diarrhea (Dia) ([1]; 20 mg/kg i.v., Table 9): mod
Hypothermia (Hyp) ([1]; 20 mg/kg i.v., Table 9): mod
Lacrimation (Lac) ([1]; 20 mg/kg i.v., Table 9): sev
Mydriasis (Myd) ([1]; 20 mg/kg i.v., Table 9): mod
Piloerection (Pil) ([1]; 20 mg/kg i.v., Table 9): mod
Salivation (Sal) ([1]; 20 mg/kg i.v., Table 9): sev
Analgesia (Ana) ([1]; 20 mg/kg i.v., Table 9): 5/5
Convulsive seizure (Con) ([1]; 20 mg/kg i.v., Table 9): 0/5
Respiratory distress (Res) ([1]; 20 mg/kg i.v., Table 9): 1/5
Tremors (Tre) ([1]; 20 mg/kg i.v., Table 9): 2/5
Lacrimation (Lac) ([1]; 20 mg/kg p.os): sli
Salivation (Sal) ([1]; 20 mg/kg p.os): sli
Analgesia (Ana) ([1]; 20 mg/kg p.os): 0/5
Convulsive seizure (Con) ([1]; 20 mg/kg p.os): 0/5
Respiratory distress (Res) ([1]; 20 mg/kg p.os): 0/5
Tremors (Tre) ([1]; 20 mg/kg p.os): 0/5
Altered spontaneous motor activity (Mot) ([1]; 40 mg/kg i.v.): dec
Diarrhea (Dia) ([1]; 40 mg/kg i.v.): mod
Hypothermia (Hyp) ([1]; 40 mg/kg i.v.): mod
Lacrimation (Lac) ([1]; 40 mg/kg i.v.): sev
Mydriasis (Myd) ([1]; 40 mg/kg i.v.): mod
Piloerection (Pil) ([1]; 40 mg/kg i.v.): mod
Salivation (Sal) ([1]; 40 mg/kg i.v.): sev
Analgesia (Ana) ([1]; 40 mg/kg i.v.): 5/5
Convulsive seizure (Con) ([1]; 40 mg/kg i.v.): 1/5
Respiratory distress (Res) ([1]; 40 mg/kg i.v.): 3/5
Tremors (Tre) ([1]; 40 mg/kg i.v.): 5/5
Altered spontaneous motor activity (Mot) ([1]; 40 mg/kg p.os): dec
Diarrhea (Dia) ([1]; 40 mg/kg p.os): sli
Hypothermia (Hyp) ([1]; 40 mg/kg p.os): sli
Lacrimation (Lac) ([1]; 40 mg/kg p.os): mod
Piloerection (Pil) ([1]; 40 mg/kg p.os): sli
Salivation (Sal) ([1]; 40 mg/kg p.os): sli
Analgesia (Ana) ([1]; 40 mg/kg p.os): 3/5
Convulsive seizure (Con) ([1]; 40 mg/kg p.os): 0/5
Respiratory distress (Res) ([1]; 40 mg/kg p.os): 0/5
Tremors (Tre) ([1]; 40 mg/kg p.os): 0/5
Altered spontaneous motor activity (Mot) ([1]; 50 mg/kg p.os): dec
Diarrhea (Dia) ([1]; 50 mg/kg p.os): sli
Hypothermia (Hyp) ([1]; 50 mg/kg p.os): sli
Lacrimation (Lac) ([1]; 50 mg/kg p.os): mod
Mydriasis (Myd) ([1]; 50 mg/kg p.os): sli
Piloerection (Pil) ([1]; 50 mg/kg p.os): mod
Salivation (Sal) ([1]; 50 mg/kg p.os): mod
Analgesia (Ana) ([1]; 50 mg/kg p.os): 5/5
Convulsive seizure (Con) ([1]; 50 mg/kg p.os): 0/5
Respiratory distress (Res) ([1]; 50 mg/kg p.os): 0/5
Tremors (Tre) ([1]; 50 mg/kg p.os): 2/5
LD50 ([1]; Intravenous Injection, 95% Confidence Limits 66.6 - 71.2): 68.9 mg/kg
LD50 ([1]; Oral Administration, 95% Confidence Limits 118.4 - 152.5): 134.4 mg/kg

CC1=NCC2(CCN(C)CC2)O1 [AF150, 2-Methyl-spiro(1,3-oxazoline-5,4')-1'-methylpiperidine]
Working memory errors (session I) (AF64A-treated rats [2]; AF150 0.07 mg./kg., i.p. group, AF64A rats, week (pre)II, before treatment): 3.33±1.18
Working memory errors (session I) (AF64A-treated rats [2]; AF150 0.07 mg./kg., i.p. group, Sal. rats, week (pre)II, before treatment): 0.33±0.12
Working memory errors (session I) (AF64A-treated rats [2]; AF150 0.07 mg./kg., i.p., AF64A rats, week III): 3.75±1.04
Working memory errors (session I) (AF64A-treated rats [2]; AF150 0.07 mg./kg., i.p., Sal. rats, week III): 0.18±0.07
Working memory errors (session I) (AF64A-treated rats [2]; AF150 1.0 mg./kg., i.p. group, AF64A rats, week (pre)II, before treatment): 3.00±0.94
Working memory errors (session I) (AF64A-treated rats [2]; AF150 1.0 mg./kg., i.p. group, Sal. rats, week (pre)II, before treatment): 0.11±0.05
Working memory errors (session I) (AF64A-treated rats [2]; AF150 1.0 mg./kg., i.p., AF64A rats, week III): 4.22±1.76
Working memory errors (session I) (AF64A-treated rats [2]; AF150 1.0 mg./kg., i.p., Sal. rats, week III): 0.13±0.07

CC1=NC2(CCN(C)CC2)CO1 [AF151, 1-methylpiperidine-4-spiro-4'-(2'-methyl-1',3'-oxazoline)]
Path length (AF64A-treated rats [3]; icv AF64A, AF151 0.07 mg./kg., Block 1): 729.0± 98.2 cm.
Path length (AF64A-treated rats [3]; icv AF64A, AF151 0.07 mg./kg., Block 2): 918.1±124.3 cm.
Path length (AF64A-treated rats [3]; icv AF64A, AF151 0.07 mg./kg., Block 3): 743.1±151.1 cm.
Path length (AF64A-treated rats [3]; icv AF64A, AF151 0.07 mg./kg., Block 4): 574.9±101.1 cm.
Path length (AF64A-treated rats [3]; icv AF64A, AF151 0.07 mg./kg., Reversal): 602.9± 97.9 cm.
Path length (AF64A-treated rats [3]; icv AF64A, AF151 0.3 mg./kg., Block 1): 862.3±151.0 cm.
Path length (AF64A-treated rats [3]; icv AF64A, AF151 0.3 mg./kg., Block 2): 843.5±197.5 cm.
Path length (AF64A-treated rats [3]; icv AF64A, AF151 0.3 mg./kg., Block 3): 539.9±146.2 cm.
Path length (AF64A-treated rats [3]; icv AF64A, AF151 0.3 mg./kg., Block 4): 297.9± 60.4 cm.
Path length (AF64A-treated rats [3]; icv AF64A, AF151 0.3 mg./kg., Reversal): 390.5± 77.0 cm.
Path length (AF64A-treated rats [3]; icv AF64A, AF151 1.0 mg./kg., Block 1): 656.6±107.6 cm.
Path length (AF64A-treated rats [3]; icv AF64A, AF151 1.0 mg./kg., Block 2): 802.7±111.1 cm.
Path length (AF64A-treated rats [3]; icv AF64A, AF151 1.0 mg./kg., Block 3): 795.0±131.3 cm.
Path length (AF64A-treated rats [3]; icv AF64A, AF151 1.0 mg./kg., Block 4): 434.4± 33.0 cm.
Path length (AF64A-treated rats [3]; icv AF64A, AF151 1.0 mg./kg., Reversal): 606.0± 60.0 cm.
Path length (AF64A-treated rats [3]; icv Sal., AF151 0.07 mg./kg., Block 1): 490.6± 74.0 cm.
Path length (AF64A-treated rats [3]; icv Sal., AF151 0.07 mg./kg., Block 2): 562.9± 92.7 cm.
Path length (AF64A-treated rats [3]; icv Sal., AF151 0.07 mg./kg., Block 3): 429.2± 76.5 cm.
Path length (AF64A-treated rats [3]; icv Sal., AF151 0.07 mg./kg., Block 4): 278.0± 44.0 cm.
Path length (AF64A-treated rats [3]; icv Sal., AF151 0.07 mg./kg., Reversal): 453.9± 76.0 cm.
Path length (AF64A-treated rats [3]; icv Sal., AF151 0.3 mg./kg., Block 1): 517.8± 45.3 cm.
Path length (AF64A-treated rats [3]; icv Sal., AF151 0.3 mg./kg., Block 2): 365.1± 58.4 cm.
Path length (AF64A-treated rats [3]; icv Sal., AF151 0.3 mg./kg., Block 3): 424.6± 92.3 cm.
Path length (AF64A-treated rats [3]; icv Sal., AF151 0.3 mg./kg., Block 4): 346.7± 64.4 cm.
Path length (AF64A-treated rats [3]; icv Sal., AF151 0.3 mg./kg., Reversal): 306.8± 43.3 cm.
Path length (AF64A-treated rats [3]; icv Sal., AF151 1.0 mg./kg., Block 1): 607.4± 90.6 cm.
Path length (AF64A-treated rats [3]; icv Sal., AF151 1.0 mg./kg., Block 2): 440.2± 90.1 cm.
Path length (AF64A-treated rats [3]; icv Sal., AF151 1.0 mg./kg., Block 3): 408.1± 97.1 cm.
Path length (AF64A-treated rats [3]; icv Sal., AF151 1.0 mg./kg., Block 4): 233.8± 30.6 cm.
Path length (AF64A-treated rats [3]; icv Sal., AF151 1.0 mg./kg., Reversal): 450.0± 93.5 cm.
